Experimental data taken from paper PMC4551797 (PLoS ONE, 2015).

Assays:
GPR120 = molecular target: T1, GPR120 (Homo sapiens, UniProt Q5NUL3); test: Selectivity: enteroendocrine GPCR GPR120
T1 sequence (Q5NUL3 1-361): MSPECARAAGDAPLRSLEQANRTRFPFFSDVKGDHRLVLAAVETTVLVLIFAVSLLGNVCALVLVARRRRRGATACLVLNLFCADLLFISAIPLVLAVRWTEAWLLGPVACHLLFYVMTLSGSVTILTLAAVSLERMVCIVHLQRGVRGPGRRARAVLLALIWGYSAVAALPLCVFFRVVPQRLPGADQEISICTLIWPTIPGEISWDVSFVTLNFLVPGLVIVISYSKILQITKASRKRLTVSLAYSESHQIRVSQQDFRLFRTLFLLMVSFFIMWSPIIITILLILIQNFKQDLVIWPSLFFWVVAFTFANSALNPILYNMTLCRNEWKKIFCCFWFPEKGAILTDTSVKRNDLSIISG

C57BL/6 mice = test: Three-day study on GLP-1 and gallbladder filling (bile weight); type: in vivo, mouse
Method: C57BL/6 mice, Tgr5 KO mice, or their wild-type littermate controls were orally dosed with vehicle or compounds twice per day for 3 days, with overnight fasting performed on the evening of day 2. On the morning of day 3, animals were dosed orally with compounds and then euthanized by CO2 asphyxiation at 30 minutes after the fifth dose. Plasma was collected for analysis of GLP-1 (X-36) amide as mentioned above, followed immediately by incision into the abdominal cavity to remove and weigh bile from the gallbladder.
On the third day, compound was dosed in the morning followed 30 minutes later by measurement of bile filling (A) by use of a needle and syringe and GLP-1 (x-36) amide (B) by cardiac puncture.

mouse TGR5 [1] = molecular target: T2, mouse TGR5 (Mus musculus, UniProt Q80SS6); test: cAMP production in HEK-293 cells stably transfected with the mouse TGR5 gene (HTRF cAMP assay); type: cell-based; set-up: expressed in transfected cells
T2 sequence (Q80SS6 1-329): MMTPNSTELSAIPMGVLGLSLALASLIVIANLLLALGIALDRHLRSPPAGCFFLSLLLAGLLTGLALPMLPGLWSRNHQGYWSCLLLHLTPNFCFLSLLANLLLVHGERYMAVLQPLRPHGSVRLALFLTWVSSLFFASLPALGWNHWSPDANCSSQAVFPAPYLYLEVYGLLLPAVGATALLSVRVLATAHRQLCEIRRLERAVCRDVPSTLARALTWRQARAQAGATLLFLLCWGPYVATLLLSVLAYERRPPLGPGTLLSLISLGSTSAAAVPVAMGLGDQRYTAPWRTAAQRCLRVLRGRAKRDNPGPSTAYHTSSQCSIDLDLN
Method: HEK-293 cells were obtained from ATCC and a clonal HEK-293 line overexpressing mouse TGR5 was prepared. Both were maintained in Dulbecco’s modified Eagle’s medium (DMEM) containing 10% fetal bovine serum (FBS) and penicillin /streptomycin. Mouse STC-1 cells were obtained from ATCC under agreement with the Cold Spring Harbor Laboratories and maintained in DMEM containing 10% FBS and penicillin /streptomycin. NCI-H716 cells were obtained from ATCC and were maintained in RPMI-1640 with 10% FBS. NCI-H716 cells were cultured in 96 well plate coated with Matrigel (BD). After 72 hours, cAMP production stimulated with TGR5 agonists was measured using HTRF cAMP assay kit (CISBIO). The level of cAMP in suspensions of STC-1 cells stimulated with increasing concentrations of TGR5 agonists was also determined. […] The production of GLP-1 was determined using a GLP-1 Assay (7–36) amide kit (Mesoscale Discovery) following the manufacturer’s instructions. […]
Compound 18 is a novel small molecule agonist of TGR5 developed by Eli Lilly and Company (MW = 508.62, Fig 2A). […] In order to determine potency of compound 18 for the mouse and human TGR5 receptor in cells with endogenous levels of receptor, we measured compound 18-stimulated cAMP production and GLP-1 secretion in both mouse (STC-1) and human (NCI-H716) enteroendocrine cell lines, that we have shown to express TGR5 natively (Fig 1). […]

mouse TGR5 [2] = molecular target: T2, mouse TGR5; test: cAMP production in STC-1 enteroendocrine cells (endogenous TGR5); type: cell-based; set-up: in cells with endogenous levels of receptor; host or cells: STC-1 (mouse enteroendocrine); conditions: for EC50: STC-1 cells
Method: Both were maintained in Dulbecco’s modified Eagle’s medium (DMEM) containing 10% fetal bovine serum (FBS) and penicillin /streptomycin. Mouse STC-1 cells were obtained from ATCC under agreement with the Cold Spring Harbor Laboratories and maintained in DMEM containing 10% FBS and penicillin /streptomycin. […] NCI-H716 cells were cultured in 96 well plate coated with Matrigel (BD). After 72 hours, cAMP production stimulated with TGR5 agonists was measured using HTRF cAMP assay kit (CISBIO). The level of cAMP in suspensions of STC-1 cells stimulated with increasing concentrations of TGR5 agonists was also determined. After 2 day-culturing, GLP-1 secretion in Matrigel-differentiated NCI-H716 or STC-1 cells was induced by increasing concentrations of TGR5 agonists. The production of GLP-1 was determined using a GLP-1 Assay (7–36) amide kit (Mesoscale Discovery) following the manufacturer’s instructions. For both cAMP and GLP-1, the maximal response for each compound was set to 100% in each cell line.

[3] = 1, 3, 10, 30, 100 mg/kg oral BID 3 days, 30 min after last dose

CC(=O)N1CCC(C(C)N(C(=O)COc2cccc3sc4nc(C)cn4c23)c2ccc(F)cc2)CC1 (stereo not shown) [compound 18]
EC50 (GPR120): > 125000 nM
bile weight (gallbladder filling) (C57BL/6 mice; [3]): clear dose dependent increase in bile weight
plasma GLP-1 levels (C57BL/6 mice; [3]): elevated GLP-1 levels
doses with significant effects on GLP-1 secretion (C57BL/6 mice; oral BID 3 days): ≥ 30 mg/kg
doses with significant effects on bile weight (C57BL/6 mice; oral BID 3 days): ≥ 3 mg/kg
EC50 (mouse TGR5 [1]; HEK-293 cells over-expressing mouse TGR5, read-out: EC50, cAMP production): 24.7 nM
EC50 (mouse TGR5 [1]; cAMP, unit inferred, x-axis in nM, read-out: EC50 HEK-293-mTGR5 (Fig 2B inset)): 24.7 nM
EC50 (mouse TGR5 [2]; read-out: EC50, cAMP production): 580 nM
EC50 (mouse TGR5 [2]; unit inferred, x-axis in nM, read-out: EC50 STC-1 (Fig 2C inset, cAMP)): 580 nM
potency on the mouse versus the human TGR5 receptor (mouse TGR5 [2]; STC-1 versus NCI-H716 cells): more than 5 fold
